{
  "source": "paper PMC9855884",
  "about": "“Glycosylated Lipopeptides—Synthesis and Evaluation of Antimicrobial Activity and Cytotoxicity” (Biomolecules, 2023)",
  "note": "Where a SMILES comes first, the peptide text is derived from it. The star is where a group is joined. βGlcNAc = CC(=O)N[C@@H]1[C@@H](O)[C@H](O)[C@@H](CO)O[C@H]1*; Stearoyl = CCCCCCCCCCCCCCCCCC(=O)*",
  "data": [
    {"tested_on": "P. aeruginosa biofilm", "format": "cell-based, Pseudomonas aeruginosa", "conditions": "24 h", "protocol": "The Acinetobacter baumannii ATCC BAA-1605, Enterococcus faecium ATCC 700221, Klebsiella aerogenes ATCC 13048, Klebsiella pneumoniae ATCC 700603, Pseudomonas aeruginosa ATCC 9027, Staphylococcus aureus ATCC 33591, Candida glabrata ATCC 15126, strains were acquired from the American Type Culture Collection (ATCC). All the strains were stored at −80 °C in Roti-Store cryo vials and were transferred into fresh Mueller–Hinton broth (MHB, Becton Dickinson, Warsaw, Poland) for bacteria or RPMI-1640 (Sigma-Aldrich, Steinheim, Germany) for fungi before the tests and incubated for 24 h at 37 °C. Then, the cultures were seeded on the Mueller–Hinton agar (BioMaxima, Lublin, Poland) or Sabouraud dextrose agar (SDA, BioMaxima, Lublin, Poland) plates, respectively, and incubated as just mentioned. These agar cultures were used for further microbiological assays. Cell densities for all assays were adjusted spectrophotometrically (Multiskan GO Microplate Spectrophotometer, Thermo Fisher Scientific, Vantaa, Finland) at 600 and 530 nm for bacteria and fungi, respectively.\nThe MBECs were determined as previously described, using 96-well polystyrene flat-bottom plates. For this purpose, 24 h cultures of microorganisms were diluted to obtain a final density of 5.0 × 10^5 CFU/mL and 2.0 × 10^5 CFU/mL of bacteria and fungi, respectively. Microorganisms were diluted in MHB or RPMI-1640 with 2% D-glucose (bacteria and fungi, respectively). Briefly, 100 µL of cell suspension was added into the test plates. After 24 h of incubation at 37 °C, the wells were rinsed three times with a phosphate buffer saline (PBS, pH 7.4) to remove non-adherent cells. Subsequently, 100 μL of the test compounds over the concentration range (1–512 μg/mL) were added to each well. After 24 h of incubation at 37 °C, 20 μL of a cell viability reagent was added (resazurin, 4 g/L; Sigma Aldrich, St. Louis, MO, USA). The MBEC was read after 1 h. The determined values were recorded as the lowest concentration at which the reduction of resazurin (from blue to pink) […]. All experiments were conducted in triplicate.", "units": {"MBEC": "µg/mL"}, "values": [
      {"smiles": "CCCCCCCCCCCCCCCCCC(=O)N[C@@H](CO)C(=O)N[C@@H](CCCNC(=N)N)C(=O)N[C@@H](CCCNC(=N)N)C(N)=O", "note": "[Peptide 7, C18-SRR-NH2] (Stearoyl-Ser-Arg-Arg-NH2)", "MBEC": 512},
      {"smiles": "CCCCCCCCCCCCCCCCCC(=O)N[C@@H](CCCNC(=N)N)C(=O)N[C@@H](CO)C(=O)N[C@@H](CCCNC(=N)N)C(N)=O", "note": "[Peptide 8, C18-RSR-NH2] (Stearoyl-Arg-Ser-Arg-NH2)", "MBEC": ">512"},
      {"smiles": "CCCCCCCCCCCCCCCCCC(=O)N[C@@H](CCCNC(=N)N)C(=O)N[C@@H](CCCNC(=N)N)C(=O)N[C@@H](CO)C(N)=O", "note": "[Peptide 9, C18-RRS-NH2] (Stearoyl-Arg-Arg-Ser-NH2)", "MBEC": ">512"},
      {"smiles": "CCCCCCCCCCCCCCCCCC(=O)N[C@@H](CO[C@@H]1O[C@H](CO)[C@@H](O)[C@H](O)[C@H]1NC(C)=O)C(=O)N[C@@H](CCCNC(=N)N)C(=O)N[C@@H](CCCNC(=N)N)C(N)=O", "note": "[Peptide 16, C18-S(GlcNAc)RR-NH2] (Stearoyl-Ser(βGlcNAc)-Arg-Arg-NH2)", "MBEC": 512},
      {"smiles": "CCCCCCCCCCCCCCCCCC(=O)N[C@@H](CCCNC(=N)N)C(=O)N[C@@H](CO[C@@H]1O[C@H](CO)[C@@H](O)[C@H](O)[C@H]1NC(C)=O)C(=O)N[C@@H](CCCNC(=N)N)C(N)=O", "note": "[Peptide 17, C18-RS(GlcNAc)R-NH2] (Stearoyl-Arg-Ser(βGlcNAc)-Arg-NH2)", "MBEC": ">512"},
      {"smiles": "CCCCCCCCCCCCCCCCCC(=O)N[C@@H](CCCNC(=N)N)C(=O)N[C@@H](CCCNC(=N)N)C(=O)N[C@@H](CO[C@@H]1O[C@H](CO)[C@@H](O)[C@H](O)[C@H]1NC(C)=O)C(N)=O", "note": "[Peptide 18, C18-RRS(GlcNAc)-NH2] (Stearoyl-Arg-Arg-Ser(βGlcNAc)-NH2)", "MBEC": 512}
    ]}
  ]
}
